From PubChem BioAssay (NCI)
Values joined by “and” are separate entries in the source; they are usually repeats but may differ in a detail not shown here. Equal entries are not always repeated.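 Tested at 5 concentrations; 48 h exposure; 96-well plates; endpoints linearly interpolated, else capped at highest concentration. GI50: concentration for 50% inhibition of growth. TGI marks complete inhibition of growth.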 *1 amine or outer side, *2 acyl side, *3 side chain or, on linkers, in order; H or OH if unused. Where a SMILES comes first, the peptide text is derived from it. Bridges are numbered along the chain shown (N, C = ends). Roman numbers before positions name the chains, in order. [ ]: non-standard residue; d: D form. Actinocin(9to1) = Cc1c2oc3c(C)ccc(C(=O)[*:1])c3nc-2c(C(=O)[*:2])c(N)c1=O; NMeT = CN[CH](C(=O)O)[CH](C)O; Sar = CNCC(=O)O

Columns and labels:
Assay in all cases: growth of human tumour cells (NCI), 48 h
[1] = test system: MALME-3M melanoma
[2] = test system: NCI-H460 lung
[3] = test system: RXF 393 renal
[4] = test system: SK-MEL-28 melanoma
[5] = test system: A498 renal
[6] = test system: BT-549 breast
[7] = test system: DU-145 prostate
[8] = test system: MDA-MB-231 breast
[9] = test system: MDA-MB-435
[10] = test system: PC-3 prostate

| Compound | TGI [1] | TGI [2] | TGI [3] | TGI [4] | TGI [5] | TGI [6] | TGI [7] | TGI [8] | TGI [9] | GI50 [5] | GI50 [6] | GI50 [1] | GI50 [9] | GI50 [2] | GI50 [3] | GI50 [4] | GI50 [7] | GI50 [10] | TGI [10] | GI50 [8] |
| --- | --- | --- | --- | --- | --- | --- | --- | --- | --- | --- | --- | --- | --- | --- | --- | --- | --- | --- | --- | --- |
| CC(=O)OC1CCn2nnc(CO)c21 (stereo not drawn) | > 100 µM | > 100 µM | > 100 µM | > 100 µM | – | – | – | – | – | – | – | – | – | – | – | – | – | – | – | – |
| C#CC1(OC(C)=O)CCC2C3CC=C4C=C(OC(C)=O)CCC4(C)C3CCC21C (stereo not drawn) | 33.9 µM | 61.8 µM | – | 53.6 µM | > 100 µM | 83.1 µM | 97.4 µM | 58.3 µM | 45.2 µM | – | – | – | – | – | – | – | – | – | – | – |
| COc1ccc2c3c([nH]c2c1[N+](=O)[O-])C(C)N(Cc1ccc([N+](=O)[O-])cc1)CC3 (stereo not drawn) | – | 34.7 µM | 57.1 µM | 44.5 µM | 63.7 µM | – | – | – | – | – | – | – | – | – | – | – | – | – | – | – |
| O=S(=O)(NCCCNc1nccc(-c2c(-c3ccc(F)c(O)c3)nc3sccn23)n1)c1ccc(F)cc1 | 1.01 µM | 6.35 µM | 4.68 µM | > 100 µM | 6.81 µM | 7.14 µM | – | – | 3.35 µM | 2.86 µM | 1.84 µM | 0.0316 µM | 0.636 µM | 2.37 µM | 1.53 µM | 0.104 µM | – | – | – | – |
| CN1CC(=O)N(C)c2ncn(Cc3ccccc3)c2C1=O | > 100 µM | > 100 µM | > 100 µM | > 100 µM | > 100 µM | – | – | – | – | – | – | – | – | – | – | – | – | – | – | – |
| COc1ccc(C(=O)C(C(=O)CC(=O)Nc2cccc(C(F)(F)F)c2)c2ccc(OC)cc2)cc1 (stereo not drawn) | > 100 µM | > 100 µM | > 100 µM | > 100 µM | > 100 µM | – | – | – | – | – | – | – | – | – | – | – | – | – | – | – |
| COc1ccc(-c2cc(=O)c3ccccc3o2)cc1N | > 100 µM | > 100 µM | > 100 µM | > 100 µM | > 100 µM | – | – | – | – | – | – | – | – | – | – | – | – | – | – | – |
| O=C(O)NC(c1ccccc1)C(NC(=O)c1ccccc1)c1ccccc1 (stereo not drawn) | > 100 µM | > 100 µM | > 100 µM | > 100 µM | > 100 µM | – | – | – | – | – | – | – | – | – | – | – | – | – | – | – |
| c1cc(N2CCCN(c3ccc(C4=NCCCN4)cc3)CC2)ccc1C1=NCCCN1 | > 100 µM | > 100 µM | > 100 µM | > 100 µM | > 100 µM | > 100 µM | > 100 µM | – | > 100 µM | 2.72 µM | > 100 µM | > 100 µM | > 100 µM | 36.7 µM | > 100 µM | > 100 µM | > 100 µM | 91.9 µM | > 100 µM | – |
| C=C(NC(=O)C(=C)NC(=O)c1csc(C2=NC3c4csc(n4)C4NC(=O)c5csc(n5)C(C(C)(O)C(C)O)NC(=O)C5CSC(=N5)C(=CC)NC(=O)C(C(C)O)NC(=O)c5csc(n5)C3(CC2)NC(=O)C(C)NC(=O)C(=C)NC(=O)C(C)NC(=O)C(C(C)CC)NC2C=Cc3c(C(C)O)cc(nc3C2O)C(=O)OC4C)n1)C(N)=O (stereo not drawn) | > 100 µM | > 100 µM | 7.88 µM | 24.5 µM | – | 4.71 µM | > 100 µM | > 100 µM | > 100 µM | – | 2.1 µM | 3.14 µM | 3.96 µM | 17 µM | 2.44 µM | 7.09 µM | 58.7 µM | 77.5 µM | > 100 µM | 6.46 µM |
| COc1cc(OC)c(SSCCCCS(=O)O)c(OC)c1 | 31 µM | 38.1 µM | 27.6 µM | 29.7 µM | 33.6 µM | – | – | – | – | – | – | – | – | – | – | – | – | – | – | – |
| CC(=O)c1cccc(C)c1C(=O)O | > 100 µM | > 100 µM | > 100 µM | > 100 µM | > 100 µM | – | – | – | – | – | – | – | – | – | – | – | – | – | – | – |
| NC[C@H]1Nc2ccccc2[C@@H](O)C1O (stereo partly drawn) | > 100 µM | > 100 µM | > 100 µM | > 100 µM | – | – | > 100 µM | > 100 µM | > 100 µM | – | – | – | – | – | – | – | – | – | > 100 µM | – |
| COc1ccccc1C(O)(c1ccccc1)C(O)(c1ccccc1)c1ccccc1OC (stereo not drawn) | > 100 µM | > 100 µM | > 100 µM | > 100 µM | > 100 µM | – | – | – | – | – | – | – | – | – | – | – | – | – | – | – |
| O=C1CC(=O)N(C(=O)c2nn(-c3ccc(Cl)cc3)cc2O)N1 | 46.5 µM | > 100 µM | > 47 µM | > 100 µM | – | > 64.5 µM | > 100 µM | > 100 µM | > 100 µM | – | 0.296 µM | 0.703 µM | 0.355 µM | 0.345 µM | 0.191 µM | 2.82 µM | 0.923 µM | 0.36 µM | > 100 µM | 1.84 µM |
| CCN(CC)CCCNC(=O)C1COc2cc(-c3cc(=O)c4ccccc4o3)ccc2O1 (stereo not drawn) | 36.8 µM | > 100 µM | > 100 µM | 40.8 µM | > 100 µM | – | – | – | – | – | – | – | – | – | – | – | – | – | – | – |
| CC1=C[C@]2(O)C(=O)[C@H](C)C[C@H]3[C@@H](CC[C@@](C)(O)/C=C\2C1=O)C3(C)C | 54.4 µM | > 57.6 µM | 19.8 µM | 33.1 µM | 47.2 µM | – | – | – | – | – | – | – | – | – | – | – | – | – | – | – |
| COc1ccc(/C(=N\NC(=O)C(=O)NN)C(c2ccc(OC)cc2)C2(O)C(=O)Nc3ccccc32)cc1 (stereo not drawn) | > 100 µM | > 100 µM | – | > 100 µM | > 100 µM | – | – | – | – | – | – | – | – | – | – | – | – | – | – | – |
| COC(=O)CC[C@]1(C)O[C@H]2[C@H]([C@@H](C)CCCC(C)=O)OC(=O)[C@@H]2C[C@H]1O | – | > 100 µM | > 100 µM | > 100 µM | – | > 100 µM | – | > 100 µM | > 100 µM | – | > 100 µM | – | 98.3 µM | > 100 µM | 60.1 µM | > 100 µM | – | > 100 µM | > 100 µM | > 100 µM |
| CC(=O)[CH-]C(=O)c1ccccc1.CC(=O)[CH-]C(=O)c1ccccc1.CC(C)CCCC(C)[C@H]1CCC2[C@@H]3CC=C4C[C@@H]([O-])CC[C@]4(C)C3CC[C@@]21C.CC(C)CCCC(C)[C@H]1CCC2[C@@H]3CC=C4C[C@@H]([O-])CC[C@]4(C)C3CC[C@@]21C.[Ti+4] (stereo partly drawn) | – | > 100 µM | > 100 µM | > 100 µM | > 100 µM | – | – | – | – | > 100 µM | – | – | – | > 100 µM | > 100 µM | > 100 µM | – | – | – | – |
| Cc1c2oc3c(C)ccc(C(=O)NC4C(=O)NC(C(C)C)C(=O)N5CCCC5C(=O)N(C)CC(=O)N(C)C(C(C)O)C(=O)OC4C)c3nc-2c(C(=O)NC2C(=O)NC(C(C)C)C(=O)N3CCCC3C(=O)N(C)CC(=O)N(C)C(C(C)O)C(=O)OC2C)c(N)c1=O (stereo not drawn) (I: TVP[Sar][NMeT] / II: TVP[Sar][NMeT]; ester I:1-I:C, II:1-II:C; linker I:N-II:N via Actinocin(9to1); configuration not given here) | 6.05 µM and > 1 µM | 4.95 µM and > 1 µM | 2.95 µM and > 1 µM | 4.96 µM and > 1 µM | 2.33 µM and > 1 µM | – | > 100 µM | > 69.9 µM | 21 µM and > 1 µM | 0.327 µM and > 1 µM | – | 0.0949 µM and 0.729 µM | 2.11 µM and > 1 µM | – | – | – | 5.98 µM and > 1 µM | 2.99 µM and > 1 µM | > 100 µM | 3.53 µM and > 1 µM |
